The source of these data is patent US9562035B2, “Benzamide derivative useful as FASN inhibitors for the treatment of cancer” (Janssen Pharmaceutica NV, priority 2013, dated 2017).

The target in assay [1] is T1, hFASN enzyme (full length) (Homo sapiens, UniProt P49327).
T1 construct: 10 μL hFASN enzyme (full length, 300 ng, purified in house); made in house
Description: Fatty Acid Synthase (FASN) Inhibition Scintillation Proximity Assay. The class given is biochemical. The conditions noted are these: for IC50: mean where tested more than once, ~ = standard error of pIC50 larger than 0.5; for inhibition at 10 µM: read-out: FASN % Effect @1E−05M. In a few lines: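 Eight compound concentrations (0.01–30 μM) tested in pH 7.5 phosphate buffer with DTT; human full-length enzyme converted [3H]-acetyl-CoA plus malonyl-CoA, with NADPH, over 60 min at room temperature. Hydrophobic [3H]-palmitate detected by bead proximity scintillation imaging; control-normalised data fitted for IC50/pIC50.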
For orientation: SPA uses beads or plates that emit light when radiolabelled molecules are held near them.

Assay [2] deals with T2, FASN Keto-reductase Domain (Homo sapiens, UniProt P49327).
T2 construct: 10 μL hFASN enzyme (full length, 300 ng, purified in house) and 360 μM NADPH; made in house
In words: Fatty Acid Synthase Keto-Reductase Domain (FASN KR) Inhibition. To be noted: mean where tested more than once; read-out: FASN K-R Domain pIC50 (converted). The format is biochemical. In a few lines:
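Keto-reductase activity followed as NADPH consumption (A340 drop between 0 and 20 min, room temperature) using in-house full-length hFASN, 360 μM NADPH and ethyl acetoacetate substrate (180 mM stock), pH 7.5 phosphate buffer.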

Assay [3] relates to A2780 ovarian cells. In words: A2780 Ovarian Cell Proliferation Assay in Lipid Reduced Medium, without Palmitate. The class given is cell-based. To be noted: Homo sapiens, A2780; lipid reduced medium, without palmitate, 96 h, MTT; read-out: Proliferation A2780 w/o Palmitate pIC50 (converted). On the procedure: (§1) The biological assays described below correspond to comparative assays for ovarian cell proliferation. […] Compounds active in the absence of palmitate would not be expected to be active in the control.
(§2) 2500 cells were seeded in a 96-well clear well plate in 200 μL RPMI1640 with 10% Fetal Calf Serum (Hyclone), and incubated at 37° C., 5% CO2. Blanks were wells without cells. The next day the culture medium was aspirated and replaced by 160 μL culture medium with 10% Lipid-Reduced Serum (LRS, Hyclone). 20 μL test compound (at concentrations of 30 μM, 10 μM, 3 μM, 1 μM, 0.30 μM, 0.10 μM, 0.03 μM and 0.01 μM)/DMSO dilution followed by 20 μL ethanol-BSA solution were added to a final concentrations of 0.2% DMSO, 0.2% fatty-acid-free BSA, 0.25% ethanol. After 96 h incubation an MTT assay was performed. The absorbance was measured at 544 nm on a SPECTRAMAX.
Raw data generated by the instrument were normalized to % Controlmin values, which were calculated as: % Controlmin=100*(x−mLC)/(mHC−mLC)
where mLC and mHC were the means of the low control wells and high control wells on the plate, after manual exclusion of outliers. A plot of Controlmin versus test compound concentration was fitted to a 4-parameter logistic curve using a non-linear least squares regression method. From the plot, an IC50 (concentration at which 50% inhibition is achieved) was calculated. pIC50 values were calculated as −log(IC50), when IC50 is expressed in molar units.
(§3) Representative compounds of the present invention were tested according to the procedure as described in Biological Example 3 above, with results as listed in Table BIO-3, below.

The test system of assay [4] is A2780 ovarian cells. In words: A2780 Ovarian Cell Proliferation Assay in Lipid Reduced Medium, with Palmitate (control). The format is cell-based. The conditions noted are these: Homo sapiens, A2780; lipid reduced medium, 25 μM palmitate, 96 h, MTT; read-out: Proliferation A2780 with Palmitate pIC50 (converted). On the procedure:
as §1
as §2, with “palmitate-BSA” for “ethanol-BSA”, “DMSO, 25 μM palmitate (Sigma, P0500, 10 mM stock solution in ethanol)” for “DMSO,”, “incubation,” for “incubation”
A best fit curve was fitted by a minimum sum of squares method, plotting Controlmin versus test compound concentration. From the plot, an IC50 (concentration at which 50% inhibition is achieved) was calculated. pIC50 values, presented in the Table below, were calculated as −log(IC50).
as §3

T2 sequence (P49327 whole entry, the tested form may be a part): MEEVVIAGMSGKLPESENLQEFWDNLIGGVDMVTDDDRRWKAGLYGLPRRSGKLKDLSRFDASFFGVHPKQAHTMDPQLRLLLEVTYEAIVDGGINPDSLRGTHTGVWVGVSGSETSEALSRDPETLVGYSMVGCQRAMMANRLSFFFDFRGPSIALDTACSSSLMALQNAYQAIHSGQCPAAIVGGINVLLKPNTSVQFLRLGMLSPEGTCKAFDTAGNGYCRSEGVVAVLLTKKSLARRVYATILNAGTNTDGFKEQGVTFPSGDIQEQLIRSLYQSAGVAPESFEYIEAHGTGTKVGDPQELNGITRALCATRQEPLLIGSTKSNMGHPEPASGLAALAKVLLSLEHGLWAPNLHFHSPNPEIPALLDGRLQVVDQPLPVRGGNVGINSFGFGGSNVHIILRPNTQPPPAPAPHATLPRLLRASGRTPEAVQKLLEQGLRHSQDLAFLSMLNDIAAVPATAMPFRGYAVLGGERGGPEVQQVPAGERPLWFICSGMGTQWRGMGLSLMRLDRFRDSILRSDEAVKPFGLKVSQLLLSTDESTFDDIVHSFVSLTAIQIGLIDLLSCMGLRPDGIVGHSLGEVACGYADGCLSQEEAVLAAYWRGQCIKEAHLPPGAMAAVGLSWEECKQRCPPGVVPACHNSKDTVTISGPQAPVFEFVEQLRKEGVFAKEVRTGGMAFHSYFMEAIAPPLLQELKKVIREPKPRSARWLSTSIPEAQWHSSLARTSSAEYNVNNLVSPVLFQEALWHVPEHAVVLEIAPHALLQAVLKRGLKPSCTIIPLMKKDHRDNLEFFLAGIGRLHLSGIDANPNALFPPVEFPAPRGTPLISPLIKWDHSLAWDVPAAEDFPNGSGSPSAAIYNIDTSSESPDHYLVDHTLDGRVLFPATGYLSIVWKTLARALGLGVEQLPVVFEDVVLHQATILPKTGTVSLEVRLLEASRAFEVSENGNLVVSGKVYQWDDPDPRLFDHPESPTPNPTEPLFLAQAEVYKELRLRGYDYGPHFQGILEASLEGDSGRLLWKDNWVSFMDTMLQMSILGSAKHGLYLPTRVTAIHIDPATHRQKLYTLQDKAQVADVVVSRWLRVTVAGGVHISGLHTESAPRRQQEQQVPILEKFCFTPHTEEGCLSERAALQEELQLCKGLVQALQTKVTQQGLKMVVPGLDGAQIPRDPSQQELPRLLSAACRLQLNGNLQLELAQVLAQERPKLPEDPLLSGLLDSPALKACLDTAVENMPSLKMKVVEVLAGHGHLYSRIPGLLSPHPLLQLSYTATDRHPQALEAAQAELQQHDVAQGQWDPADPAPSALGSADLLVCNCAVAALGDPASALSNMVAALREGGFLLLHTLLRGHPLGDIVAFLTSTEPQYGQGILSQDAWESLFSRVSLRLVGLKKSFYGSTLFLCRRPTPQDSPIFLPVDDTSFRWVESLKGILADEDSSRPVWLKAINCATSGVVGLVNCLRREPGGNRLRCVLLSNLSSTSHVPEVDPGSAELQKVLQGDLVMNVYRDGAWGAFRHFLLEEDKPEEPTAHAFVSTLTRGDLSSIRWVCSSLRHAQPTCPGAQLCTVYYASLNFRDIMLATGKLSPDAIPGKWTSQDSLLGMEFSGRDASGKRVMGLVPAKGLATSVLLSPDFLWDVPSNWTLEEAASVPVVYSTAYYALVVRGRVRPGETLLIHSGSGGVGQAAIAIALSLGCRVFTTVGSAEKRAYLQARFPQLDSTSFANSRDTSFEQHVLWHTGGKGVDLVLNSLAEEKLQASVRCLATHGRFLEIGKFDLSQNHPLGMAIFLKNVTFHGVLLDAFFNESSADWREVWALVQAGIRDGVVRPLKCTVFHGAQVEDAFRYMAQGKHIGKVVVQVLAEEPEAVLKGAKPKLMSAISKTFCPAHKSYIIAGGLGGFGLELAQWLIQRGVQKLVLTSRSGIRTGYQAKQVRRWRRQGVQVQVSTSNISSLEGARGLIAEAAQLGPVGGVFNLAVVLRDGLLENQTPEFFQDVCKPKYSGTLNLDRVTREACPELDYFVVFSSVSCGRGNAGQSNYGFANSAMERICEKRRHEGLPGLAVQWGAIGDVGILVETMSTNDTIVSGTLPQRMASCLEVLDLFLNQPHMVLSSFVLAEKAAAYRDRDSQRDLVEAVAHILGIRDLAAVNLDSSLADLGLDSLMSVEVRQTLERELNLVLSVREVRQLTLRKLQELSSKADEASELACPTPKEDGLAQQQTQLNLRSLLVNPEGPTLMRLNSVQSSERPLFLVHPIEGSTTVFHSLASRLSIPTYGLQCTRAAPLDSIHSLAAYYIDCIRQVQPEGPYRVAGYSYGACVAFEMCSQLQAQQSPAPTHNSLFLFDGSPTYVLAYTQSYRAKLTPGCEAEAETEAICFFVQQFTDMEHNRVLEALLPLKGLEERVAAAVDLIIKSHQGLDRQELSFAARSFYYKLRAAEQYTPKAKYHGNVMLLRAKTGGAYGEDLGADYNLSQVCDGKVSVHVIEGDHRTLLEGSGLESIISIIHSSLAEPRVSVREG
T1 sequence (P49327 whole entry): as the sequence (P49327 whole entry, the tested form may be a part) above

Take `Cc1ccc(C(=O)N2CC(c3ccc(-c4ccncc4N)cc3)C2)cc1NC(=O)c1ccc(Cl)nc1` [Compound 266, N-(5-(3-(4-(3-aminopyridin-4-yl)phenyl)azetidine-1-carbonyl)-2-methylphenyl)-6-chloronicotinamide]: the IC50 in assay [1] was 38 nM; in assay [2], 107 nM; in the assay with A2780 ovarian cells [3], roughly 41.7 nM; in the assay with A2780 ovarian cells [4], greater than 10000 nM. The inhibition at 10 µM in assay [1] stood at 112%.
For `Cc1ccc(C(=O)N2CCC(c3ccc(-c4cnn(C)c4)cc3)CC2)cc1NC(=O)C1CCOCC1` [Compound 104, N-(2-methyl-5-(4-(4-(1-methyl-1H-pyrazol-4-yl)phenyl)piperidine-1-carbonyl)phenyl)tetrahydro-2H-pyran-4-carboxamide] the same measures were 42.7 nM, 87.1 nM, 70.8 nM, greater than 10000 nM and 104%.
The like results for `Cc1ccc(C(=O)N2CCC(c3ccc(-c4cn[nH]c4)cc3)CC2)cc1NC(=O)c1ccc(NC(C)C)nc1` [Compound 42, N-(5-(4-(4-(1H-pyrazol-4-yl)phenyl)piperidine-1-carbonyl)-2-methylphenyl)-6-(isopropylamino)nicotinamide] were, in that order, 21.4 nM, 34.7 nM, 102 nM, greater than 10000 nM and 106%.
For `Cc1ccc(C(=O)N2CCC(c3ccc(-c4cnn(C)c4)cc3)CC2)cc1NC(=O)c1ccc(Cl)nc1` [Compound 102, 6-Chloro-N-(2-methyl-5-(4-(4-(1-methyl-1H-pyrazol-4-yl)phenyl)piperidine-1-carbonyl)phenyl)nicotinamide] the same measures were 18.6 nM, 38 nM, 36.3 nM, greater than 10000 nM and 105%.
`Cc1ccc(C(=O)N2CCC(c3ccc(-c4cnn(CCO)c4)cc3)CC2)cc1NC(=O)c1ccc(NC(C)C)nc1` [Compound 267, N-(5-(4-(4-(1-(2-hydroxyethyl)-1H-pyrazol-4-yl)phenyl)piperidine-1-carbonyl)-2-methylphenyl)-6-(isopropylamino)nicotinamide]: the IC50 in assay [1] was 25.7 nM; in assay [2] it was 58.9 nM; with A2780 ovarian cells [3], roughly 22.4 nM; with A2780 ovarian cells [4], greater than 10000 nM. Further, the inhibition at 10 µM in assay [1] stood at 112%.
For `Cc1ccc(C(=O)N2CC(c3ccc(-c4cnn(C)c4)cc3)C2)cc1NC(=O)c1cccc(C(F)(F)F)n1` [Compound 97, N-(2-methyl-5-(3-(4-(1-methyl-1H-pyrazol-4-yl)phenyl)azetidine-1-carbonyl)phenyl)-6-(trifluoromethyl)picolinamide] the same measures were 170 nM, 324 nM, 501 nM, 6030 nM and 89%.
For `Cc1ccc(C(=O)N2CCC(c3ccc(-c4cnn(C)c4)cc3)CC2)cc1NC(=O)C1CCN(C2CCC(C)C2)C1` (stereo not shown) [Compound 194, N-(2-methyl-5-(4-(4-(1-methyl-1H-pyrazol-4-yl)phenyl)piperidine-1-carbonyl)phenyl)-1-(3-methylcyclopentyl)pyrrolidine-3-carboxamide] the same measures were 117 nM, 214 nM, 158 nM, roughly 8710 nM and 102%.
Consider `Cc1ccc(F)c(C(=O)Nc2cc(C(=O)N3CCC(c4ccc(-c5cnn(C)c5)cc4)CC3)ccc2C)c1` [Compound 127, 2-fluoro-5-methyl-N-(2-methyl-5-(4-(4-(1-methyl-1H-pyrazol-4-yl)phenyl)piperidine-1-carbonyl)phenyl)benzamide], for which the IC50 in assay [1] was 182 nM; in assay [2] it was 389 nM; in the assay with A2780 ovarian cells [3], 562 nM; in the assay with A2780 ovarian cells [4], 4470 nM. The inhibition at 10 µM in assay [1] was found to be 98%.
For `Cc1ccc(C(=O)N2CC(c3ccc(-c4cnn(C)c4)cc3)C2)cc1NC(=O)c1ccc(NC2CCC2)nc1` [Compound 109, 6-(cyclobutylamino)-N-(2-methyl-5-(3-(4-(1-methyl-1H-pyrazol-4-yl)phenyl)azetidine-1-carbonyl)phenyl)nicotinamide] the same measures were 14.5 nM, 31.6 nM, roughly 23.4 nM, greater than 15100 nM and 119%.
For `COc1ccc(C(=O)Nc2cc(C(=O)N3CC(c4ccc(-c5cnn(C)c5)cc4)C3)ccc2C)cc1` [Compound #83, 4-methoxy-N-(2-methyl-5-(3-(4-(1-methyl-1H-pyrazol-4-yl)phenyl)azetidine-1-carbonyl)phenyl)benzamide] the same measures were 16.2 nM, 45.7 nM, 74.1 nM, greater than 10000 nM and 109%.
For the molecule `Cc1ccc(C(=O)N2CCC(c3ccc(-c4cnn(C)c4)cc3)CC2)cc1NC(=O)c1ccccc1Cl` [Compound 96, 2-chloro-N-(2-methyl-5-(4-(4-(1-methyl-1H-pyrazol-4-yl)phenyl)piperidine-1-carbonyl)phenyl)benzamide], the IC50 in assay [1] is 31.6 nM; in assay [2] it was 155 nM; with A2780 ovarian cells [3], 145 nM; in the assay on A2780 ovarian cells [4] it was greater than 10000 nM. In addition, the inhibition at 10 µM in assay [1] was determined as 103%.
For `Cc1ccc(C(=O)N2CCC(c3ccc(-c4cnn(C)c4)cc3)CC2)cc1NC(=O)c1ccc(Cl)c(Cl)c1` [Compound 123, 3,4-dichloro-N-(2-methyl-5-(4-(4-(1-methyl-1H-pyrazol-4-yl)phenyl)piperidine-1-carbonyl)phenyl)benzamide] the same measures were 53.7 nM, 77.6 nM, 162 nM, 6760 nM and 97%.
For `Cc1ccc(C(=O)N2CC(c3ccc(-c4ccnn4C)cc3)C2)cc1NC(=O)c1ccc(N2CCOCC2)nc1` [Compound 58, N-(2-methyl-5-(3-(4-(1-methyl-1H-pyrazol-5-yl)phenyl)azetidine-1-carbonyl)phenyl)-6-morpholinonicotinamide] the same measures were 11.2 nM, 28.2 nM, 18.2 nM, 3720 nM and 111%.
For `Cc1ccc(C(=O)N2CC(c3ccc(-c4ccncc4N)cc3)C2)cc1NC(=O)c1ccc(N2CCOCC2)nc1` [Compound 265, N-(5-(3-(4-(3-aminopyridin-4-yl)phenyl)azetidine-1-carbonyl)-2-methylphenyl)-6-morpholinonicotinamide] the same measures were 21.9 nM, 60.3 nM, 20.9 nM, greater than 10000 nM and 110%.
